According to patent US20250339415A1, “DISULFIDE COMPOUNDS AS MEDICAMENTS” (CYTACOAT AB, priority 2021, published 2025):
Structures can show the parent of a compound that is named as a salt.

What was measured:
Type in all cases: cell-based
S. aureus = assay: Combination therapy: Gentamycin with PDEA, visible growth; details: Gentamycin 0 μg/ml
Protocol: (§1) Different concentrations of Gentamycin in Mueller Hinton were prepared in 3 different concentrations of PDEA. E. coli and S. aureus were inoculated (10^5) and were incubated O/N.
(§2) Readouts were “Clear” and “Foggy”.

E. coli = assay: as above; details: Gentamycin 0 μg/ml
Protocol: as §1, §2

Escherichia coli CFT073 = assay: Minimum inhibitory concentration (MIC), visible growth
Protocol: (§3) • 1. Using a sterile inoculating loop, transfer bacteria/Candida albicans from frozen stock culture and streak them on a fresh LA plate. • 2. Incubate the plate at 37° C. overnight (o/n) (18-24 h).
(§4) • 1. Prepare bacterial culture by adding 20 ml Mueller Hinton broth (*) to a 250-ml Erlenmeyer flask with sidearm. • 2. Using a sterile inoculating loop, pick approximately 10 colonies from the o/n bacterial culture and transfer bacteria to the flask. • 3. Incubate the E-flask with bacteria on a rotating shaker at 37° C. until OD590=0.40. This OD should equal an approximate bacterial count of 1×10^8 cfu/ml (**) • This is measured using a colorimeter (or spectrophotometer). Set reference and press R (=reference) first, then measure the bacterial culture by pressing T (=test). • 4. At OD590 0.40, serially dilute the bacterial suspension 1:10 000 in Mueller Hinton broth to obtain a bacterial target concentration of 1×10^4 cfu/ml. Determine the initial inoculation by serially diluting 0.1 ml in 0.9 ml blanks of sterile PBS and plating 0.1 ml aliquots to LA plates, preferably. • 5. Different concentrations of the tested compound are prepared in 0.6-0.8 ml of the final dilution of bacterial suspension and placed in 2-ml test tubes. • 6. Incubate test tubes in an orbital shaker incubator at 37° C. for 24 h.
(§5) • 7. Analyze visible growth, i.e. “Foggy” or “Clear”. MIC is being defined as the interval between the highest “Foggy” and the lowest “Clear” concentration of the compound.
(§6) Different concentrations of PDEA (Example 1) in Mueller Hinton medium were prepared. Bacteria were inoculated to a concentration of 20 000 CFU/ml and incubated at 37° C. for 24 hours. Minimum inhibitory concentrations (MICs) were determined by analyzing visible growth, i.e., readouts were “Clear” and “Foggy”.
(§7) Different concentrations of the quaternary ammonium PDEA (Example 2) in Mueller Hinton medium were prepared. Bacteria were inoculated to a concentration of 20 000 CFU/ml and incubated at 37° C. for 24 hours. Minimum inhibitory concentrations (MICs) were determined by analyzing visible growth, i.e., readouts were “Clear” and “Foggy”.
(§8) Different concentrations of this compound in Mueller Hinton medium were prepared. Bacteria were inoculated to a concentration of 20 000 CFU/ml and incubated at 37° C. for 24 hours. Minimum inhibitory concentrations (MICs) were determined by analyzing visible growth, i.e., readouts were “Clear” and “Foggy”.
(§9) Different concentrations of this compound were prepared in Mueller Hinton broth. Bacteria were inoculated to a concentration of 20 000 CFU/ml and incubated at 37° C. for 24 hours. Minimum inhibitory concentrations (MICs) were determined by analyzing visible growth, i.e., readouts were “Clear” and “Foggy”.

[1] = test system: Enterococcus faecium #11 (KI, Clinical Isolate); assay: as above
Protocol: as §3, §4, §5, §6, §7, §8, §9

[2] = test system: Pseudomonas aeruginosa PA02; assay: as above
Protocol: as §3, §4, §5, §6, §7, §8, §9

[3] = test system: Enterococcus faecalis #28 (KI, Clinical Isolate); assay: as above
Protocol: as §3, §4, §5, §6, §7, §8, §9

[4] = test system: Staphylococcus epidermidis Se19 (Clinical Isolate, Jan Ingemar Falk); assay: as above
Protocol: as §3, §4, §5, §6, §7, §8, §9

[5] = test system: Klebsiella pneumoniae AO15200; assay: as above
Protocol: as §3, §4, §5, §6, §7, §8, §9

[6] = test system: Staphylococcus aureus B5381; assay: as above
Protocol: as §3, §4, §5, §6, §7, §8, §9

NCCSSc1ccccn1 [PDEA, 2-(Pyridyldithio)ethylamine (hydrochloride)]
Visible growth readout (Clear/Foggy) (S. aureus; PDEA 0.0125 mM): Foggy
Visible growth readout (Clear/Foggy) (S. aureus; PDEA 0.025 mM): Foggy
Visible growth readout (Clear/Foggy) (S. aureus; PDEA 0.05 mM): Foggy
Visible growth readout (Clear/Foggy) (E. coli; PDEA 0.0125 mM): Foggy
Visible growth readout (Clear/Foggy) (E. coli; PDEA 0.025 mM): Foggy
Visible growth readout (Clear/Foggy) (E. coli; PDEA 0.04 mM): Clear
visible growth readout (Escherichia coli CFT073; 0.01 mM): Foggy
visible growth readout (Escherichia coli CFT073; 0.025 mM): Foggy
visible growth readout (Escherichia coli CFT073; 0.05 mM): Foggy
visible growth readout (Escherichia coli CFT073; 0.1 mM): Clear
MIC (Escherichia coli CFT073; Escherichia coli, CFT073, 24 h): 50 to 100 µM
visible growth readout ([1]; 0.01 mM): Foggy
visible growth readout ([1]; 0.025 mM): Foggy
visible growth readout ([1]; 0.05 mM): Clear
visible growth readout ([1]; 0.1 mM): Clear
MIC ([1]; Enterococcus faecium, 24 h): 25 to 50 µM
visible growth readout ([2]; 0.05 mM): Foggy
visible growth readout ([2]; 0.1 mM): Foggy
visible growth readout ([2]; 0.2 mM): Clear
visible growth readout ([2]; 0.4 mM): Clear
MIC ([2]; Pseudomonas aeruginosa, PA02, 24 h): 100 to 200 µM
visible growth readout ([3]; 0.05 mM): Foggy
visible growth readout ([3]; 0.1 mM): Foggy
visible growth readout ([3]; 0.2 mM): Clear
visible growth readout ([3]; 0.4 mM): Clear
MIC ([3]; Enterococcus faecalis, 24 h): 100 to 200 µM
visible growth readout ([4]; 0.01 mM): Foggy
visible growth readout ([4]; 0.025 mM): Foggy
visible growth readout ([4]; 0.05 mM): Clear
visible growth readout ([4]; 0.1 mM): Clear
MIC ([4]; Staphylococcus epidermidis, 24 h): 25 to 50 µM
visible growth readout ([5]; 0.01 mM): Foggy
visible growth readout ([5]; 0.025 mM): Foggy
visible growth readout ([5]; 0.05 mM): Foggy
visible growth readout ([5]; 0.1 mM): Clear
MIC ([5]; Klebsiella pneumoniae, AO15200, 24 h): 50 to 100 µM
visible growth readout ([6]; 0.05 mM): Foggy
visible growth readout ([6]; 0.1 mM): Foggy
visible growth readout ([6]; 0.2 mM): Clear
visible growth readout ([6]; 0.4 mM): Clear
MIC ([6]; Staphylococcus aureus, B5381, 24 h): 100 to 200 µM
